Reference: BindingDB's records for doi:10.1021/acs.jmedchem.1c01452 (Zhengzhou University, 2021)

Tests used:
[1] = Inhibition of ABCB1 (unknown origin) expressed in HEK293T cells assessed as reduction in paclitaxel IC50 at 1 uM pre-incubated for 4 hrs followed by paclitaxel addition and measured after 72 hrs by MTT assay
[2] = Inhibition of ABCB1 (unknown origin) expressed in HEK293T cells assessed as reduction in paclitaxel IC50 at 2 uM pre-incubated for 4 hrs followed by paclitaxel addition and measured after 72 hrs by MTT assay
[3] = Inhibition of ABCB1 (unknown origin) expressed in HEK293T cells assessed as reduction in colchicine IC50 at 1 uM pre-incubated for 4 hrs followed by colchicine addition and measured after 72 hrs by MTT assay
[4] = Inhibition of ABCB1 (unknown origin) expressed in HEK293T cells assessed as reduction in colchicine IC50 at 2 uM pre-incubated for 4 hrs followed by colchicine addition and measured after 72 hrs by MTT assay
[5] = Inhibition of ABCB1 (unknown origin) expressed in HEK293T cells assessed as reduction in paclitaxel IC50 at 0.5 uM pre-incubated for 4 hrs followed by paclitaxel addition and measured after 72 hrs by MTT assay
[6] = Inhibition of ABCB1 (unknown origin) expressed in HEK293T cells assessed as reduction in colchicine IC50 at 0.5 uM pre-incubated for 4 hrs followed by colchicine addition and measured after 72 hrs by MTT assay

IC50 [1]: 12.2 µM | IC50 [2]: 3.6 µM | IC50 [3]: 101 µM | IC50 [4]: 22.2 µM | IC50 [5]: 30.5 µM | IC50 [6]: 321 µM
Structure (SMILES): COc1cc2ncnc(-c3c(-c4ccccc4)n(Cc4ccccc4Br)c4ccccc34)c2cc1OCCCN1CCOCC1
